# Where “and” joins values, the source holds several entries; their conditions need not be identical. Identical values can stand only once.
# Tested on: OVCAR-5 complex spheroids, viability
# Assay: Anticancer human tumor OVCAR-5 cell line growth inhibition;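 further: spheroids exposed to agents for seven days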;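 on viability, T/C: 100% = DMSO vehicle control wells viability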
# Settings: for viability, T/C: stronger effect = lower value
# How it was run: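 Drug combinations with the LSD1 inhibitor iadademstat tested on tumor cells co-cultured as spheroids with endothelial cells and mesenchymal stem cells. Concentrations descended in half-log increments from clinical Cmax or 10 microM.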
# [1] = curve of first compound, second compound 0.1 µM
# [2] = curve of first compound, second compound 0.316 µM
# [3] = curve of first compound, second compound 1 µM
# [4] = curve of first compound, second compound 3.16 µM
# [5] = curve of first compound, second compound 10 µM
# [6] = second compound 0.1 µM, first compound 0.00949 µM
# [7] = second compound 0.1 µM, first compound 0.03 µM
# [8] = second compound 0.1 µM, first compound 0.0949 µM
# [9] = second compound 0.1 µM, first compound 0.3 µM
# [10] = second compound 0.316 µM, first compound 0.00949 µM
# [11] = second compound 0.316 µM, first compound 0.03 µM
# [12] = second compound 0.316 µM, first compound 0.0949 µM
# [13] = second compound 0.316 µM, first compound 0.3 µM
# [14] = second compound 1 µM, first compound 0.00949 µM
# [15] = second compound 1 µM, first compound 0.03 µM
# [16] = second compound 1 µM, first compound 0.0949 µM
# [17] = second compound 1 µM, first compound 0.3 µM
# [18] = second compound 3.16 µM, first compound 0.00949 µM
# [19] = second compound 3.16 µM, first compound 0.03 µM
# [20] = second compound 3.16 µM, first compound 0.0949 µM
# [21] = second compound 3.16 µM, first compound 0.3 µM
# [22] = second compound 10 µM, first compound 0.00949 µM
# [23] = second compound 10 µM, first compound 0.03 µM
# [24] = second compound 10 µM, first compound 0.0949 µM
# [25] = second compound 10 µM, first compound 0.3 µM
smiles,measurement,setting,value
CCc1c2c(nc3ccc(O)cc13)-c1cc3c(c(=O)n1C2)COC(=O)[C@]3(O)CC,"viability, T/C",compound 0.000949 µM,39.2% and 30.3%
same,"viability, T/C",compound 0.003 µM,21.2% and 19.1%
same,"viability, T/C",compound 0.00949 µM,8.48% and 7.2%
same,"viability, T/C",compound 0.03 µM,3.26% and 2.51%
same,"viability, T/C",compound 0.0949 µM,1.15% and 0.63%
same,"viability, T/C",compound 0.3 µM,0.68% and 0.54%
same,IC50,curve of compound,< 0.949 nM
O=C(C=Cc1cccc(S(=O)(=O)Nc2ccccc2)c1)NO + NC1CC1c1ccc(-c2cccc(O)c2)cc1,IC50,[1],118 nM
same,IC50,[2],124 nM
same,IC50,[3],81.9 nM
same,IC50,[4],74 nM
same,IC50,[5],78 nM
same,"viability, T/C",[6],90.3%
same,"viability, T/C",[7],78.2%
same,"viability, T/C",[8],54.6%
same,"viability, T/C",[9],28.7%
same,"viability, T/C","second compound 0.1 µM, first compound 0.949 µM",11.8%
same,"viability, T/C","second compound 0.1 µM, first compound 3 µM",2.54%
same,"viability, T/C",[10],89.4%
same,"viability, T/C",[11],82.5%
same,"viability, T/C",[12],55.3%
same,"viability, T/C",[13],27.7%
same,"viability, T/C","second compound 0.316 µM, first compound 0.949 µM",13.8%
same,"viability, T/C","second compound 0.316 µM, first compound 3 µM",2.81%
same,"viability, T/C",[14],82.7%
same,"viability, T/C",[15],69.6%
same,"viability, T/C",[16],46.5%
same,"viability, T/C",[17],25.3%
same,"viability, T/C","second compound 1 µM, first compound 0.949 µM",9.19%
same,"viability, T/C","second compound 1 µM, first compound 3 µM",2.22%
same,"viability, T/C",[18],82.9%
same,"viability, T/C",[19],67.5%
same,"viability, T/C",[20],44.3%
same,"viability, T/C",[21],25.9%
same,"viability, T/C","second compound 3.16 µM, first compound 0.949 µM",10.2%
same,"viability, T/C","second compound 3.16 µM, first compound 3 µM",2.06%
same,"viability, T/C",[22],87.9%
same,"viability, T/C",[23],73.9%
same,"viability, T/C",[24],40.2%
same,"viability, T/C",[25],28.6%
same,"viability, T/C","second compound 10 µM, first compound 0.949 µM",11.8%
same,"viability, T/C","second compound 10 µM, first compound 3 µM",2.64%
CCc1c2c(nc3ccc(O)cc13)-c1cc3c(c(=O)n1C2)COC(=O)[C@]3(O)CC + NC1CCC(NC2CC2c2ccccc2)CC1,IC50,[1],< 0.949 nM
same,IC50,[2],< 0.949 nM
same,IC50,[3],< 0.949 nM
same,IC50,[4],< 0.949 nM
same,IC50,[5],< 0.949 nM
same,"viability, T/C","second compound 0.1 µM, first compound 0.000949 µM",36.5%
same,"viability, T/C","second compound 0.1 µM, first compound 0.003 µM",20.8%
same,"viability, T/C",[6],9.21%
same,"viability, T/C",[7],4.18%
same,"viability, T/C",[8],1.08%
same,"viability, T/C",[9],0.71%
same,"viability, T/C","second compound 0.316 µM, first compound 0.000949 µM",37%
same,"viability, T/C","second compound 0.316 µM, first compound 0.003 µM",21.9%
same,"viability, T/C",[10],10.2%
same,"viability, T/C",[11],5.04%
same,"viability, T/C",[12],1.52%
same,"viability, T/C",[13],0.83%
same,"viability, T/C","second compound 1 µM, first compound 0.000949 µM",39.9%
same,"viability, T/C","second compound 1 µM, first compound 0.003 µM",25.3%
same,"viability, T/C",[14],11.1%
same,"viability, T/C",[15],5.17%
same,"viability, T/C",[16],1.3%
same,"viability, T/C",[17],0.78%
same,"viability, T/C","second compound 3.16 µM, first compound 0.000949 µM",41.6%
same,"viability, T/C","second compound 3.16 µM, first compound 0.003 µM",24.6%
same,"viability, T/C",[18],12.8%
same,"viability, T/C",[19],5.77%
same,"viability, T/C",[20],1.49%
same,"viability, T/C",[21],0.71%
same,"viability, T/C","second compound 10 µM, first compound 0.000949 µM",41%
same,"viability, T/C","second compound 10 µM, first compound 0.003 µM",25.4%
same,"viability, T/C",[22],12.4%
same,"viability, T/C",[23],5.97%
same,"viability, T/C",[24],1.81%
same,"viability, T/C",[25],2.3%
Cn1ncnc1C1c2n[nH]c(=O)c3cc(F)cc(c23)NC1c1ccc(F)cc1 (centres undefined),"viability, T/C",compound 0.000316 µM,96.3% and 102%
same,"viability, T/C",compound 0.001 µM,91.2% and 102%
same,"viability, T/C",compound 0.00316 µM,89% and 98.7%
same,"viability, T/C",compound 0.01 µM,93.4% and 95.9%
same,"viability, T/C",compound 0.0316 µM,90.2% and 86%
same,"viability, T/C",compound 0.1 µM,99.8% and 93.8%
same,IC50,curve of compound,> 100 nM
